The supplement of paper PMC10307832

Tests used:
Experiment in all cases: relative viability (nuclei count vs DMSO), 5 days (fraction); higher = more cells survive
[1] = compound: CN(C)C/C=C/C(=O)Nc1cc2c(Nc3ccc(F)c(Cl)c3)ncnc2cc1O[C@H]1CCOC1 [Afatinib] + CC1(C)CCC(c2ccc(Cl)cc2)=C(CN2CCN(c3ccc(C(=O)NS(=O)(=O)c4ccc(N[C@H](CCN5CCOCC5)CSc5ccccc5)c(S(=O)(=O)C(F)(F)F)c4)cc3)CC2)C1 [Navitoclax] (partner 0.5 µM)
Outline: (§1)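 Lung cancer cell lines in 1536-well plates got either a single drug or a fixed anchor-drug dose together with five library-drug doses (not always all listed) in √10 steps, by pin tool, on the day after seeding. Nuclei were counted after 5 days, and relative viability is the treated-to-vehicle ratio of nuclei counts. Values are medians of duplicate plates.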

[2] = compound: CN(C)C/C=C/C(=O)Nc1cc2c(Nc3ccc(F)c(Cl)c3)ncnc2cc1O[C@H]1CCOC1 [Afatinib] + Cc1nc(Nc2ncc(C(=O)Nc3c(C)cccc3Cl)s2)cc(N2CCN(CCO)CC2)n1 [Dasatinib] (partner 0.075 µM)
Outline: as §1

[3] = compound: CN(C)C/C=C/C(=O)Nc1cc2c(Nc3ccc(F)c(Cl)c3)ncnc2cc1O[C@H]1CCOC1 [Afatinib] + O=C(CCCCCCC(=O)Nc1ccccc1)NO [Vorinostat] (partner 1 µM)
Outline: as §1

[4] = compound: CN(C)C/C=C/C(=O)Nc1cc2c(Nc3ccc(F)c(Cl)c3)ncnc2cc1O[C@H]1CCOC1 [Afatinib] + C[C@@H](Oc1cc(-c2cnn(C3CCNCC3)c2)cnc1N)c1c(Cl)ccc(F)c1Cl [Crizotinib] (partner 1 µM)
Outline: as §1

Row | Cell Line | relative viability ([1]; first compound 0.005 µM) | relative viability ([1]; first compound 0.01581 µM) | relative viability ([1]; first compound 0.05 µM) | relative viability ([1]; first compound 0.1581 µM) | relative viability ([1]; first compound 0.5 µM) | relative viability ([2]; first compound 0.005 µM) | relative viability ([2]; first compound 0.01581 µM) | relative viability ([2]; first compound 0.05 µM) | relative viability ([2]; first compound 0.1581 µM) | relative viability ([2]; first compound 0.5 µM) | relative viability ([3]; first compound 0.005 µM) | relative viability ([3]; first compound 0.01581 µM) | relative viability ([3]; first compound 0.05 µM) | relative viability ([3]; first compound 0.1581 µM) | relative viability ([3]; first compound 0.5 µM) | relative viability ([4]; first compound 0.005 µM) | relative viability ([4]; first compound 0.01581 µM) | relative viability ([4]; first compound 0.05 µM) | relative viability ([4]; first compound 0.1581 µM) | relative viability ([4]; first compound 0.5 µM)
1 | NCI-H1437 | 1.1 | 1.1 | 1.17 | 1.1 | 1.1 | 0.464 | 0.408 | 0.403 | 0.372 | 0.352 | 0.841 | 0.831 | 0.967 | 0.776 | 0.908 | 0.985 | 1.01 | 0.988 | 0.881 | 0.966
2 | NCI-H2170 | 0.481 | 0.454 | 0.284 | 0.187 | 0.2 | 0.352 | 0.281 | 0.157 | 0.131 | 0.155 | 0.618 | 0.697 | 0.271 | 0.201 | 0.2 | 1.07 | 0.822 | 0.534 | 0.25 | 0.286
3 | NCI-H441 | 0.904 | 0.516 | 0.446 | 0.399 | 0.294 | 0.574 | 0.488 | 0.573 | 0.435 | 0.402 | 0.791 | 0.94 | 0.737 | 0.878 | 0.698 | 0.691 | 0.789 | 0.85 | 0.841 | 0.652
4 | SK-LU-1 | 0.98 | 0.719 | 0.757 | 0.861 | 0.842 | 0.179 | 0.203 | 0.211 | 0.175 | 0.222 | 0.727 | 0.806 | 0.767 | 0.771 | 0.738 | 1.07 | 0.731 | 0.879 | 1.12 | 0.842
5 | BEN | 0.0693 | 0.0755 | 0.16 | 0.0734 | 0.0635 | 0.337 | 0.283 | 0.323 | 0.336 | 0.313 | 0.588 | 0.564 | 0.559 | 0.557 | 0.574 | 0.929 | 0.941 | 1.02 | 0.908 | 0.916
6 | LC-2-ad | 0.483 | 0.458 | 0.419 | 0.322 | 0.32 | 0.735 | 0.389 | 0.527 | 0.509 | 0.477 | 0.767 | 0.717 | 0.705 | 0.662 | 0.78 | 0.566 | 0.422 | 0.409 | 0.382 | 0.408
7 | COR-L23 | 1.14 | 0.982 | 0.948 | 0.997 | 1.03 | 0.575 | 0.484 | 0.536 | 0.426 | 0.535 | 0.682 | 0.443 | 0.484 | 0.39 | 0.485 | 0.803 | 0.583 | 0.634 | 0.603 | 0.75
8 | NCI-H1650 | 0.979 |  | 1.25 | 0.962 | 1.22 | 0.295 |  | 0.307 | 0.264 | 0.28 | 0.462 | 0.424 | 0.599 | 0.472 | 0.432 | 0.907 |  | 0.8 | 0.612 | 0.796
9 | RERF-LC-KJ | 0.786 | 0.766 | 0.874 |  | 0.751 | 0.663 | 0.662 | 0.736 | 0.61 | 0.616 | 0.713 | 0.636 | 0.544 | 0.574 | 0.519 | 0.921 | 0.842 | 0.801 | 0.731 | 0.705
10 | NCI-H1915 | 0.795 | 0.763 | 0.779 | 0.813 | 0.778 | 0.361 | 0.347 | 0.313 | 0.301 | 0.304 | 0.525 | 0.518 | 0.497 | 0.476 | 0.464 | 1 | 0.963 | 0.872 | 0.957 | 0.894
11 | NCI-H596 | 1.01 | 0.94 | 1.03 | 0.815 | 0.934 | 0.445 | 0.456 | 0.643 | 0.538 | 0.602 | 0.706 | 0.541 | 0.571 | 0.745 | 0.62 | 0.987 | 0.866 | 0.94 | 0.904 | 0.921
12 | NCI-H2009 | 1.19 | 1.12 | 1.27 | 1.15 | 1.18 | 0.306 | 0.295 | 0.341 | 0.259 | 0.285 | 0.772 | 0.775 | 0.812 | 0.701 | 0.755 | 1.07 | 0.977 | 1.12 | 1.04 | 1.04
13 | NCI-H2126 | 0.836 | 0.854 | 0.829 | 0.441 | 0.411 | 0.573 | 0.532 | 0.439 | 0.394 | 0.401 | 0.732 | 0.683 | 0.617 | 0.43 | 0.481 | 1.09 | 0.989 | 1.02 | 0.884 | 0.79
14 | LXF-289 | 0.975 | 0.885 | 0.91 | 0.927 | 0.963 | 0.238 | 0.27 | 0.253 | 0.208 | 0.228 | 0.762 | 0.678 | 0.748 | 0.753 | 0.716 | 0.845 | 0.777 | 0.793 | 0.7 | 0.811
15 | PC-14 | 0.377 | 0.334 | 0.372 | 0.334 | 0.349 | 0.0312 | 0.0316 | 0.0366 | 0.0312 | 0.0453 | 0.112 | 0.0624 | 0.108 | 0.0886 | 0.124 | 0.419 | 0.275 | 0.257 | 0.239 | 0.242
16 | HOP-62 | 1.3 | 1.09 | 1.19 | 1.11 | 1.09 | 0.701 | 0.639 | 0.731 | 0.648 | 0.693 | 0.736 | 0.655 | 0.746 | 0.727 | 0.673 | 1.04 | 0.883 | 1.11 | 1.05 | 0.969
17 | SK-MES-1 | 1.16 | 0.965 | 0.655 | 0.731 | 0.556 | 0.247 | 0.203 | 0.18 | 0.139 | 0.16 | 0.542 | 0.816 | 0.509 | 0.54 | 0.506 | 0.977 | 0.879 | 0.626 | 0.485 | 0.466
18 | NCI-H1666 | 0.887 | 0.748 | 0.583 |  | 0.389 | 0.784 | 0.772 | 0.672 | 0.672 | 0.776 | 1 | 1.03 | 1.03 | 0.811 | 0.712 | 0.879 | 0.885 | 0.661 |  | 0.676
19 | NCI-H1355 | 0.807 | 1.02 | 0.823 | 0.764 | 0.792 | 0.665 | 0.742 | 0.68 | 0.642 | 0.643 | 0.597 | 0.585 | 0.545 | 0.553 | 0.552 | 1.16 | 0.983 | 1.01 | 0.792 | 0.816
20 | HCC-827 | 0.173 | 0.168 | 0.157 | 0.18 | 0.147 | 0.14 | 0.135 | 0.16 | 0.175 | 0.15 | 0.166 | 0.134 | 0.146 | 0.151 | 0.146 | 0.169 | 0.176 | 0.184 | 0.184 | 0.21
21 | HARA | 1.17 | 1.12 | 1.06 | 0.677 | 0.866 | 0.179 | 0.182 | 0.217 | 0.178 | 0.209 | 0.586 | 0.543 |  | 0.458 | 0.58 | 0.884 | 1.04 | 0.763 | 0.494 | 0.783
22 | HCC-366 | 1.14 | 1.04 | 1.18 | 1 | 1.06 | 0.697 | 0.666 | 0.605 | 0.62 | 0.723 | 0.329 | 0.36 | 0.348 | 0.36 | 0.345 | 0.746 | 0.643 | 0.554 | 0.428 | 0.476
23 | NCI-H322M | 1.28 | 0.864 | 0.586 | 0.405 | 0.371 | 0.246 | 0.229 | 0.231 | 0.233 | 0.248 | 0.825 | 0.506 | 0.658 | 0.61 | 0.567 | 0.775 | 0.676 | 0.544 | 0.359 | 0.293
24 | NCI-H2347 | 0.932 | 0.79 | 0.873 | 0.903 | 0.804 | 0.34 | 0.318 | 0.453 | 0.269 | 0.288 | 0.628 | 0.73 | 0.587 | 0.524 | 0.565 | 0.828 | 0.937 | 0.657 | 0.607 | 0.724
25 | NCI-H1975 | 1.19 | 1.14 | 1.24 | 0.488 | 0.624 | 0.455 | 0.386 | 0.306 | 0.15 | 0.11 | 0.711 | 0.667 | 0.59 | 0.357 | 0.26 | 1.14 | 1.07 | 1.01 | 0.45 | 0.307
26 | UMC-11 | 0.361 | 0.305 | 0.294 | 0.296 | 0.293 | 0.657 | 0.439 | 0.436 | 0.419 | 0.419 | 0.378 | 0.361 | 0.347 | 0.416 | 0.364 | 0.679 | 0.558 | 0.557 | 0.629 | 0.71
27 | A-427 | 1.01 | 0.997 | 1.05 | 0.965 | 0.992 | 0.661 | 0.741 | 0.631 | 0.669 | 0.72 | 0.929 | 0.89 | 0.848 | 0.833 | 0.908 | 0.999 | 0.963 | 1.04 | 0.845 | 0.855
